# How the values were obtained:
# IDO1 = biological target: T1, IDO1 (Homo sapiens, UniProt P14902); test: IDO1 cell-based assay (HeLa cells, IFNgamma-induced, N-formylkynurenine/L-tryptophan by RFMS); conditions: 10 ng/mL IFNgamma, 24 hours
# T1 construct: endogenous in cells; host or cells: HeLa cells (ATCC), IFNgamma-induced
# Procedure, shortened: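 N-formylkynurenine and tryptophan peak areas in media measured by RFMS (C18, isocratic, d-Trp standard), giving IC50 values by regression. Source: HeLa cells incubated 24 h with IFNgamma (10 ng/mL) plus test compound at 0.5% DMSO; parallel CellTiter-Glo viability read.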
# mouse IDO1 = biological target: T2, mouse IDO1 (Mus musculus, UniProt P28776); test: Mouse IDO1 cell-based assay (PANC02 cells, mouse IFNgamma-induced, N-formylkynurenine/L-tryptophan by RFMS); conditions: 30 ng/mL mouse IFNgamma, 48 hours
# T2 construct: The murine PANC02 pancreatic ductal adenocarcinoma cell line was routinely maintained in DMEM media; endogenous in cells; host or cells: PANC02 murine pancreatic ductal adenocarcinoma cells, induced with mouse IFNgamma
# Protocol: The murine PANC02 pancreatic ductal adenocarcinoma cell line was routinely maintained in DMEM media containing 10% FBS. Cells (3,000/well) were seeded onto a 384 well plate in 50 μl of media and incubated at 37° C., 5% CO2 overnight. Cell media was aspirated, fresh media containing 30 ng/mL mouse IFNgamma (Gibco Life Technologies, cat #PMC4031) was added, and cells were incubated in absence or presence of various concentrations of compounds (final 0.5% DMSO) for 48 hours at 37° C., 5% CO2. Aliquots of the cell conditioned media was removed from the cell plate, and mixed with equal volume of 200 mM ZnSO4 to precipitate media containing protein. Two volumes of acetonitrile were added by mixing, and samples were then centrifuged at 2250G for 20 minutes at 4° C. Aliquots of the supernatant were diluted 1:10 in 0.1% formic acid containing 3 μM of deuterated Tryptophan as an internal standard.
# Samples were analyzed via RFMS to quantify N-Formyl Kynurenine (AUC) and L-tryptophan (AUC). A C18 cartridge was used with mobile phases of 0.1% Formic Acid and 80% ACN/0.1% Formic Acid under isocratic conditions. Dose-response curves were analyzed using IC50 regression curve fitting (GeneData Screener). Curves were plotted as percent of control and normalized by high controls without inhibitor (100%), and low controls (0%) containing 1 μM of epacadostat. Cell viability was also assessed using the Cell Titer Glo Kit (Promega) following manufacture recommendation.
# T1 sequence (P14902 whole entry): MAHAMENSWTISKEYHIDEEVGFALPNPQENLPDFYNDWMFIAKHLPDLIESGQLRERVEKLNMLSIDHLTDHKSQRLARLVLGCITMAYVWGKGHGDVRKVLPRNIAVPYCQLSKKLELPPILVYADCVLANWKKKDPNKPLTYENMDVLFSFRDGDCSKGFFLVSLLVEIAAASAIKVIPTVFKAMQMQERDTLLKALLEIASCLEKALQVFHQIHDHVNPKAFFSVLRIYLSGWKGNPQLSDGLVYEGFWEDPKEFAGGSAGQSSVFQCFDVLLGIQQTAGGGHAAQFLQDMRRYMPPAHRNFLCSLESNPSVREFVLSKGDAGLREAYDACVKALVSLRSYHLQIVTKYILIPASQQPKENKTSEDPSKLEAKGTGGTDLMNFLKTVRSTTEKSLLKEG
# T2 sequence (P28776 whole entry): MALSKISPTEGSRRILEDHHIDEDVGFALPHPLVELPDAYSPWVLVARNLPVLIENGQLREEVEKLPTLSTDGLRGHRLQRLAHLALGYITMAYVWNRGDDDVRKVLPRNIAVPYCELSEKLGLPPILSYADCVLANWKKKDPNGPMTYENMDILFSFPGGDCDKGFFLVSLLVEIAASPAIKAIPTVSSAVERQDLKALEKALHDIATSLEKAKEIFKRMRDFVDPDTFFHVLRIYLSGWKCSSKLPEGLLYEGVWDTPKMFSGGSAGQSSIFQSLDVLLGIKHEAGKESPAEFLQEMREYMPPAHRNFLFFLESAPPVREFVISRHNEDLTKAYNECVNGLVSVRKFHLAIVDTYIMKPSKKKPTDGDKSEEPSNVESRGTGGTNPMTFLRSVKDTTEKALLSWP
SMILES,IC50 (IDO1),IC50 (mouse IDO1)
"CCC(NC(=O)c1ccc(Cl)cc1)[C@H]1[C@@H]2C[C@@H](C(C(=O)OC)c3ccccc3)C[C@@H]21 (mixture of isomers) [Compound 202, methyl (S)-2-((1R,3S,5S, 6S)-6-((R)-1-(4-chlorobenzamido)propyl)bicyclo[3.1.0]hexan-3-yl)-2-phenylacetate and methyl (R)-2-((R, 3S, 5S, 6S)-6-((S)-1-(4-chlorobenzamido)propyl)bicyclo[3.1.0]hexan-3-yl)-2-phenylacetate]",200 to 2000 nM,500 to 2000 nM
"CCC(NC(=O)c1ccc(Cl)cc1)[C@H]1[C@@H]2C[C@@H](C(C(=O)OC)c3ccccc3)C[C@@H]21 (mixture of isomers) [Compound 203, methyl (S)-2-((R, 3R, 5S,6S)-6-((S)-1-(4-chlorobenzamido)propyl)bicyclo[3.1.0]hexan-3-yl)-2-phenylacetate and methyl (R)-2-((1R,3R,5S, 6S)-6-((R)-1-(4-chlorobenzamido)propyl)bicyclo[3.1.0]hexan-3-yl)-2-phenylacetate]",200 to 2000 nM,< 500 nM
CCC(NC(=O)c1ccc(Cl)cc1)[C@H]1[C@@H]2C[C@@H](n3cnc4ccc(F)cc43)C[C@@H]21 (stereo partly drawn) [Compound 125],–,< 500 nM
"CCC(NC(=O)c1ccc(Cl)cc1)[C@H]1[C@@H]2C[C@@H](n3cnc4ccncc43)C[C@@H]21 (stereo partly drawn) [Compound 197, N-(1-((1R,3s,5S,6r)-3-(3H-imidazo[4,5-c]pyridin-3-yl)bicyclo[3.1.0]hexan-6-yl)propyl)-4-chlorobenzamide]",–,> 5000 nM
"CC[C@@H](NC(=O)c1ccc(Cl)cc1)[C@H]1[C@@H]2C[C@@H](n3cnc4ccc(F)cc43)C[C@@H]21 [Compound 247, 4-chloro-N—((R)-1-((1R,3S,5S, 6r)-3-(6-fluoro-1H-benzo[d]imidazol-1-yl)bicyclo[3.1.0]hexan-6-yl)propyl)benzamide]",–,< 500 nM
"CC[C@H](NC(=O)c1ccc(Cl)cc1)[C@H]1[C@@H]2C[C@@H](n3cnc4ccc(F)cc43)C[C@@H]21 [Compound 248, 4-chloro-N—((S)-1-((1R,3S,5S,6r)-3-(6-fluoro-1H-benzo[d]imidazol-1-yl)bicyclo[3.1.0]hexan-6-yl)propyl)benzamide]",–,< 500 nM
"CC[C@@H](NC(=O)c1ccc(Cl)cc1)[C@H]1[C@@H]2C[C@@H](n3cc(C4CC4)cn3)C[C@@H]21 [Compound 348, 4-chloro-N-((R)-1-((1R,3S,5S,6r)-3-(4-cyclopropyl-1H-pyrazol-1-yl)bicyclo[3.1.0]hexan-6-yl)propyl)benzamide]",< 200 nM,–
"CC[C@@H](NC(=O)Nc1ccc(Cl)c(F)c1)[C@H]1[C@@H]2C[C@@H](n3cnc4cc(F)c(F)cc43)C[C@@H]21 [Compound 349, 1-(4-chloro-3-fluorophenyl)-3-((R)-1-((1R,3S,5S,6r)-3-(5,6-difluoro-1H-benzo[d]imidazol-1-yl)bicyclo[3.1.0]hexan-6-yl)propyl)urea]",< 200 nM,–
"CC[C@@H](NC(=O)C1(C(F)(F)F)CC1)[C@H]1[C@@H]2C[C@@H](n3cnc4cc(F)c(F)cc43)C[C@@H]21 [Compound 352, N-((R)-1-((1R,3S,5S,6r)-3-(5,6-difluoro-1H-benzo[d]imidazol-1-yl)bicyclo[3.1.0]hexan-6-yl)propyl)-1-(trifluoromethyl)cyclopropane-1-carboxamide]",200 to 2000 nM,–
"CC[C@@H](NC(=O)NC1COC1)[C@H]1[C@@H]2C[C@@H](n3cnc4cc(F)c(F)cc43)C[C@@H]21 [Compound 353, 1-((R)-1-((1R,3S,5S,6r)-3-(5,6-difluoro-1H-benzo[d]imidazol-1-yl)bicyclo[3.1.0]hexan-6-yl)propyl)-3-(oxetan-3-yl)urea]",> 5000 nM,–
"CC[C@@H](NC(=O)N1CC(F)(F)C1)[C@H]1[C@@H]2C[C@@H](n3cnc4cc(F)c(F)cc43)C[C@@H]21 [Compound 354, N-((R)-1-((1R,3S,5S,6r)-3-(5,6-difluoro-1H-benzo[d]imidazol-1-yl)bicyclo[3.1.0]hexan-6-yl)propyl)-3,3-difluoroazetidine-1-carboxamide]",200 to 2000 nM,–
"CC[C@@H](NC(=O)N1CCC(F)(F)CC1)[C@H]1[C@@H]2C[C@@H](n3cnc4cc(F)c(F)cc43)C[C@@H]21 [Compound 355, N-((R)-1-((1R,3S,5S,6r)-3-(5,6-difluoro-1H-benzo[d]imidazol-1-yl)bicyclo[3.1.0]hexan-6-yl)propyl)-4,4-difluoropiperidine-1-carboxamide]",< 200 nM,–
"CC[C@@H](NC(=O)N1CCOCC1)[C@H]1[C@@H]2C[C@@H](n3cnc4cc(F)c(F)cc43)C[C@@H]21 [Compound 356, N-((R)-1-((1R,3S,5S,6r)-3-(5,6-difluoro-1H-benzo[d]imidazol-1-yl)bicyclo[3.1.0]hexan-6-yl)propyl)morpholine-4-carboxamide]",2000 to 5000 nM,–
"CC[C@@H](NC(=O)NC1CC1)[C@H]1[C@@H]2C[C@@H](n3cnc4cc(F)c(F)cc43)C[C@@H]21 [Compound 357, 1-cyclopropyl-3-((R)-1-((1R,3S,5S,6r)-3-(5,6-difluoro-1H-benzo[d]imidazol-1-yl)bicyclo[3.1.0]hexan-6-yl)propyl)urea]",200 to 2000 nM,–

# More lines, now with the values ahead:
IC50 (IDO1),IC50 (mouse IDO1),SMILES
< 200 nM,2000 to 5000 nM,"CCC(NC(=O)c1ccc(Cl)cc1)[C@H]1[C@@H]2C[C@@H](NC(=O)c3ccccn3)C[C@@H]21 (stereo partly drawn) [Compound 117, N-((1R,3s,5S,6r)-6-(1-(4-chlorobenzamido)propyl)bicyclo[3.1.0]hexan-3-yl)picolinamide]"
< 200 nM,< 500 nM,"C[C@H](NC(=O)c1ccc(C#N)cc1)[C@H]1[C@@H]2C[C@@H](Oc3ncnc4ccc(F)cc34)C[C@@H]21 [Compound 130, 4-cyano-N-((R)-1-((1R,3S,5S,6r)-3-((6-fluoroquinazolin-4-yl)oxy)bicyclo[3.1.0]hexan-6-yl)ethyl)benzamide]"
< 200 nM,500 to 2000 nM,"C[C@@H](NC(=O)c1ccc(C#N)cc1)[C@H]1[C@@H]2C[C@@H](Oc3ncnc4ccc(F)cc34)C[C@@H]21 [Compound 131, 4-cyano-N-((S)-1-((1R,3R,5S,6r)-3-((6-fluoroquinazolin-4-yl)oxy)bicyclo[3.1.0]hexan-6-yl)ethyl)benzamide]"
< 200 nM,500 to 2000 nM,"CCC(NC(=O)c1ccc(Cl)cc1)[C@H]1[C@@H]2C[C@@H](NC(=O)c3ccc(F)cn3)C[C@@H]21 (stereo partly drawn) [Compound 144, N-((1R,3s,5S,6r)-6-(1-(4-chlorobenzamido)propyl)bicyclo[3.1.0]hexan-3-yl)-5-fluoropicolinamide]"
< 200 nM,> 5000 nM,"CCC(NC(=O)c1ccc(Cl)cc1)[C@H]1[C@@H]2C[C@@H](NC(=O)c3cccnc3)C[C@@H]21 (stereo partly drawn) [Compound 145, N-((1R,3s,5S,6r)-6-(1-(4-chlorobenzamido)propyl)bicyclo[3.1.0]hexan-3-yl)nicotinamide]"
< 200 nM,2000 to 5000 nM,"CCC(NC(=O)c1ccc(Cl)cc1)[C@H]1[C@@H]2C[C@@H](NC(=O)c3cncc(Cl)n3)C[C@@H]21 (stereo partly drawn) [Compound 150, 6-chloro-N-((1R,3s,5S,6r)-6-(1-(4-chlorobenzamido)propyl)bicyclo[3.1.0]hexan-3-yl)pyrazine-2-carboxamide]"
< 200 nM,< 500 nM,"CCC(NC(=O)c1ccc(Cl)cc1)[C@H]1[C@@H]2C[C@@H](n3nncc3C3CC3)C[C@@H]21 (stereo partly drawn) [Compound 153, 4-chloro-N-(1-((1R,3s,5S,6r)-3-(5-cyclopropyl-1H-1,2,3-triazol-1-yl)bicyclo[3.1.0]hexan-6-yl)propyl)benzamide]"
< 200 nM,–,"CC(C(=O)Nc1ccc(Cl)c(F)c1)[C@H]1[C@@H]2C[C@@H](n3cnc4cc(F)c(F)cc43)C[C@@H]21 (stereo partly drawn) [Compound 345, N-(4-chloro-3-fluorophenyl)-2-((1R,3s,5S,6r)-3-(5,6-difluoro-1H-benzo[d]imidazol-1-yl)bicyclo[3.1.0]hexan-6-yl)propanamide]"
< 200 nM,–,"CC[C@@H](NC(=O)c1ccc(Cl)cc1)[C@H]1[C@@H]2C[C@@H](Nc3ccccc3C(=O)O)C[C@@H]21 [Compound 346, 2-(((1R,3S,5S,6r)-6-((R)-1-(4-chlorobenzamido)propyl)bicyclo[3.1.0]hexan-3-yl)amino)benzoic acid]"
< 200 nM,–,"CC(C(=O)Nc1ccc(Cl)cc1)[C@H]1[C@@H]2C[C@@H](Oc3ccnc4ccc(F)cc34)C[C@@H]21 (stereo partly drawn) [Compound 347, N-(4-chlorophenyl)-2-((1R,3s,5S,6r)-3-((6-fluoroquinolin-4-yl)oxy)bicyclo[3.1.0]hexan-6-yl)propanamide]"
